Reference: ChEMBL document CHEMBL1201862, “PubChem BioAssay data set” (2004)
Activity calls are given as the source filed them.

How the values were obtained:
[1] = luciferase reporter signal suppression in cells – H4 neuroglioma cells, luminescence, dose response (AID 1990); format: functional, cell-based
[2] = luciferase reporter signal reduction – luminescence, H4-C neuroglioblastoma cells, dose response (AID 2458); format: functional, cell-based;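 further: H4 neuroglioblastoma cells stably carrying a luciferase reporter gene fusion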
BJ [3] = experiment: BJ-TERT fibroblast viability loss – cell-based, RAS-independent, luminescence, dose response (AID 1933); format: functional; details: Homo sapiens
cells [4] = format: functional, cell-based
[5] = Luminescence Cell-Based Dose Response HTS to Identify Inhibitors of 5'UTR Stem-Loop Driven Prion Protein mRNA Translation in H4 Neuroglioblastoma Cells. [Related pubchem assays: 1827 (Project Summary), 1813 (Primary HTS)]; format: functional
[6] = alpha-synuclein stem-loop luciferase translation blockers – H4 neuroglioma cells, luminescence, confirmation (AID 1988); format: functional, cell-based
BJ [7] = experiment: cells; format: functional, cell-based; details: Homo sapiens
[8] = DRD fibroblast viability loss – cell-based, non-viral oncogenic, luminescence, dose response (AID 1934); format: functional; details: Homo sapiens
[9] = alpha-synuclein stem-loop translation blockers – luminescence, H4 neuroglioblastoma cells, dose confirmation, confirmation (AID 2454); format: functional, cell-based;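 further: H4 neuroglioblastoma cells carrying an alpha-synuclein 5'UTR luciferase reporter; potency for inhibition of the luciferase signal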
BJ [10] = experiment: growth inhibition of engineered Ras-driven BJ cells – cell-based, alamar blue fluorescence, cherrypicked samples, dose response (AID 2631); format: functional; details: Homo sapiens;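 further: confirmatory dose-response assay in RAS-dependent BJ fibroblasts engineered with TERT, LT and ST, with cytotoxicity read by fluorescence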
Paired box protein Pax-8 = Paired box protein Pax-8 (Homo sapiens, UniProt Q06710); experiment: PAX8 transcriptional activity inhibition in RMG-I – RMG-I cells, luciferase, cherry-pick, dose response (AID 687027); format: functional, cell-based;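 further: luciferase reporter driven by Pax8 target thyroperoxidase promoter measured by SteadyGlo luminescence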
Paired box protein Pax-8, sequence (Q06710 whole entry): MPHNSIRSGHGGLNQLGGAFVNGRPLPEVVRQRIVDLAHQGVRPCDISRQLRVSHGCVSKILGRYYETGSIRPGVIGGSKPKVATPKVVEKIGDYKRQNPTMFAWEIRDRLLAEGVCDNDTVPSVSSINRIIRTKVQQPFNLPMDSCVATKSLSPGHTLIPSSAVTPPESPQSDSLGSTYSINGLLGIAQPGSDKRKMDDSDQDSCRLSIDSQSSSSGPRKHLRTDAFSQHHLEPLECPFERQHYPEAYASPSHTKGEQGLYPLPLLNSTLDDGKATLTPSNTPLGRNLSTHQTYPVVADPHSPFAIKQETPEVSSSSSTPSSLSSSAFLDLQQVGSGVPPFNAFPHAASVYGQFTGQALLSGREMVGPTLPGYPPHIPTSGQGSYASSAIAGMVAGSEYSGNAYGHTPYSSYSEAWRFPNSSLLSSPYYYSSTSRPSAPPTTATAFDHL

[11] = inhibitors acting on PAX2 in cells – cell-based, plate reader, dry powder samples, selectivity assay for PAX8 inhibitor project, dose response (AID 743048); format: functional;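 further: HEK293 cells carrying a WT1 promoter luciferase reporter driven by expressed Pax2; potency is for inhibition of Pax2 driven reporter signal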
[12] = COV362 cell viability loss – plate reader, dry powder, SA12, cytotoxicity control for PAX8 inhibitor project, dose response (AID 743144); format: functional, cell-based
[13] = toxicity toward immortalized ovarian surface epithelium – cell-based, plate reader, dry powder samples, cytotoxicity control for PAX8 inhibitor project, dose response (AID 743045); format: functional
[14] = A2780 cell killing – plate reader, dry powder samples, cytotoxicity control, dose response (AID 743046); format: functional, cell-based
[15] = OVCAR-3 cell viability loss – plate reader, dry powder samples, PAX8 inhibitor project, dose response (AID 743044); format: functional, cell-based
[16] = PAX5 cellular inhibition readout – cell-based, plate reader, dry powder samples, selectivity assay for PAX8 inhibitor project, dose response (AID 743047); format: functional;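 further: HEK293 cells carrying a Pax5 driven CD19 promoter luciferase reporter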
[17] = IGROV1 cell killing – plate reader, dry powder samples, PAX8 inhibitor project, dose response (AID 743043); format: functional, cell-based; details: IGROV-1
[18] = OVCAR4 cell viability loss – plate reader, dry powder, SA11, cytotoxicity control for PAX8 inhibitor project, dose response (AID 743150); format: functional, cell-based; details: OVCAR-4
[19] = COV434 cell viability loss – plate reader, dry powder, SA7, cytotoxicity control for PAX8 inhibitor project, dose response (AID 743145); format: functional, cell-based
[20] = OV-90 cell viability loss – plate reader, dry powder, SA8, PAX8 inhibitor project, dose response (AID 743149); format: functional, cell-based
[21] = PAX8-dependent cell viability loss – plate reader, dry powder, dose response (AID 743049); format: functional, cell-based
Transthyretin = Transthyretin (Homo sapiens, UniProt P02766); experiment: Luminescence-based cell-based high throughput dose response assay to identify activators of Transthyretin (TTR) transcription.; format: functional
[22] = viability inhibitors of stage V gametocytes – luminescence, dose response (AID 1117278); format: functional, cell-based;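 further: gametocytes exposed to compound for 24 hours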
[23] = viability loss in human Jurkat cells – cell-based, luminescence, cytotoxicity control for P. falciparum gametocyte viability project, dose response (AID 1117277); format: functional;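 further: potency reflects loss of cellular ATP meaning fewer viable cells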
Vero = experiment: viability of Vero cells under compound – cytotoxicity control for flavivirus capping enzyme inhibitors (AID 588742); format: functional; details: Chlorocebus sabaeus
[24] = target: Glutathione-S-transferase (Schistosoma japonicum, UniProt Q26513); experiment: GST-antibody interaction or FRET quenching – biochemical, TR-FRET, artefact control for Vif-APOBEC3G degradation inhibitor project, dose response (AID 1117362); format: functional
Glutathione-S-transferase, sequence (Q26513 whole entry): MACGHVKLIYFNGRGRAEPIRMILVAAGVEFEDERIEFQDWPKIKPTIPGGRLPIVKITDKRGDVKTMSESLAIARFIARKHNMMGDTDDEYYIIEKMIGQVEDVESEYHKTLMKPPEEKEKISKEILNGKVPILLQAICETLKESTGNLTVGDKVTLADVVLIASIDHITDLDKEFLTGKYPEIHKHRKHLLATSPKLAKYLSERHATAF

[25] = Trypanosoma cruzi growth suppression in host cells – NIH3T3 host cells, beta-gal luminescence, confirmation (AID 2044); format: functional, cell-based;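 further: intracellular parasites grown in NIH/3T3 mouse fibroblasts as host cells; luminescent beta-galactosidase reporter signal from transgenic T. cruzi replicating inside host cells; inhibitors lower the luminescence signal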
[26] = NIH3T3 cell viability loss – ATP luminescence, mouse fibroblasts, counter-screen, dose response (AID 2010); format: functional, cell-based;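 further: cells exposed to compound for about 90 hours before reading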
[27] = IC50 of Artemis nuclease activity blockers – biochemical, fluorescence intensity, dose response (AID 720701); format: functional;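 further: Artemis endonuclease enzyme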
[28] = target: E3 ubiquitin-protein ligase Mdm2 (Homo sapiens, UniProt Q00987); experiment: MDM2-luc reporter signal enhancers, multi-concentration potency testing, MDM2 ubiquitin-protein ligase inhibitor program, whole-cell format, luminescence detection, 384-well microplate (AID 1394); format: functional;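 further: MDM2 E3 inhibitors raise luminescence so EC50 is for signal enhancement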
E3 ubiquitin-protein ligase Mdm2, sequence (Q00987 whole entry): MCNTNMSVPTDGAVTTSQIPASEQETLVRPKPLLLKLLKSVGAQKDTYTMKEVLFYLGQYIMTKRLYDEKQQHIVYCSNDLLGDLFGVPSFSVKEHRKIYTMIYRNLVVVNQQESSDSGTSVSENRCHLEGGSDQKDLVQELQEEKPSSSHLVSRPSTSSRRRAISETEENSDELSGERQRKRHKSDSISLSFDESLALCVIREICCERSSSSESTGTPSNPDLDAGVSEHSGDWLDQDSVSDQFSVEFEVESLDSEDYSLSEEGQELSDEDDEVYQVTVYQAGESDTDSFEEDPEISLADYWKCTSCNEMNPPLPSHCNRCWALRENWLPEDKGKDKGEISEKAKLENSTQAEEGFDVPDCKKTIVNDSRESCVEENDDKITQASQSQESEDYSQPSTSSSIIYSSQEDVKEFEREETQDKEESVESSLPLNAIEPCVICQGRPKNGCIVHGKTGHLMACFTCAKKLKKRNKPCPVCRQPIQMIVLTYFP

[29] = target: T1, Mannose-6-phosphate isomerase (Homo sapiens, UniProt P34949); experiment: MPI inhibition at elevated mannose 6-phosphate – biochemical, fluorescence intensity, high mannose 6-phosphate, primary screen (AID 1220)
T1 sequence (P34949 whole entry): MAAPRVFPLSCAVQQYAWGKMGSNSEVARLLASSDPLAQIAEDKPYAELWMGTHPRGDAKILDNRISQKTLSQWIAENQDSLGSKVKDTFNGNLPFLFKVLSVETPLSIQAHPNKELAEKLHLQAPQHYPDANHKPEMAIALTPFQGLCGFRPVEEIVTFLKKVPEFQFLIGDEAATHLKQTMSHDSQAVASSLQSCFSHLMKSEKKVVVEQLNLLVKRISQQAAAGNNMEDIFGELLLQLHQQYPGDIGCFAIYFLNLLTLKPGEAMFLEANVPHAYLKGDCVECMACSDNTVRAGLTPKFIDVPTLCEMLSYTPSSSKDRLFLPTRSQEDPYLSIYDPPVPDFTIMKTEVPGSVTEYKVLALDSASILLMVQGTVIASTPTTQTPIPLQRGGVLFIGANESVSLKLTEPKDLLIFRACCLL

cells [30] = format: functional, cell-based; remark: listed apart in the source
[31] = target: T2, Trace amine-associated receptor 1 (Homo sapiens, UniProt Q96RJ0); experiment: Fluorescence-based cell-based high throughput dose response assay to identify agonists of the human trace amine associated receptor 1 (TAAR1).; format: functional
T2 sequence (Q96RJ0 whole entry): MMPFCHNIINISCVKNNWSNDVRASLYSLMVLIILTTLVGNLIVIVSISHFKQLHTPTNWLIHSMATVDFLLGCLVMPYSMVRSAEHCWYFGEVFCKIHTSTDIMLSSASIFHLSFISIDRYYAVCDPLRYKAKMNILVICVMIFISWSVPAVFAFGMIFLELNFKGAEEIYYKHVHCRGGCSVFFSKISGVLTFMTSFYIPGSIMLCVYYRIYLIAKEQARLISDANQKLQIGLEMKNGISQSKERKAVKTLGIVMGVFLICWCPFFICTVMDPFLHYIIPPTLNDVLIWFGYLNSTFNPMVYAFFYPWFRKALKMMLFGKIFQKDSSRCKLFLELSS

[32] = target: T2, Trace amine-associated receptor 1; experiment: Counterscreen for agonists of the human trace amine associated receptor 1 (hTAAR1): Fluorescence-based cell-based high throughput dose response assay to identify hTAAR1 agonist that also desensitize TAAR1 receptor response.; format: functional
cells [33] = format: functional, cell-based; remark: listed apart in the source

For Cc1cccc(C)c1NS(=O)(=O)c1ccc(-c2cnc(C3CC3)o2)cc1, which EC50 [1] is on record?
Its EC50 is < 0.1 µM (active).

What about the EC50 [2] of the same compound?
The EC50 was 0.113 µM (active).

What about the EC50 (BJ [3]) of the same compound?
Its EC50 is 0.158 µM (active).

What about the EC50 (cells [4]) of the same compound?
The EC50 was 0.229 µM (active).

What about the EC50 [5] of the same compound?
Its EC50 is > 120 µM (not active).

What about the EC50 [6] of the same compound?
The EC50 was < 0.1 µM (active).

And the EC50 (BJ [7])?
The EC50 was 0.751 µM (inconclusive).

And the EC50 [8]?
Its EC50 is 60.4 µM (inconclusive).

And the EC50 [9]?
Its EC50 is 0.208 µM (active).

And the EC50 (BJ [10])?
Its EC50 is < 0.104 µM (active).

What about the AC50 (Paired box protein Pax-8) of the same compound?
Its AC50 is 1.74 µM (active).

And the AC50 [11]?
The AC50 was 22.4 µM (active).

What about the AC50 [12] of the same compound?
Its AC50 is 0.401 µM (active).

What about the AC50 [13] of the same compound?
The AC50 was 0.651 µM (active).

What about the AC50 [14] of the same compound?
The AC50 was 2.06 µM (active).

What about the AC50 [15] of the same compound?
The AC50 was 12.1 µM (active).

What about the AC50 [16] of the same compound?
The AC50 was 4.58 µM (active).

And the AC50 [17]?
Its AC50 is 5.04 µM (active).

And the AC50 [18]?
Its AC50 is 0.366 µM (active).

And the AC50 [19]?
The AC50 was 0.329 µM (active).

What about the AC50 [20] of the same compound?
Its AC50 is 0.973 µM (active).

And the AC50 [21]?
The AC50 was 5.36 µM (active).

Which EC50 (Transthyretin) does the source give for Cn1cc(C2CC(c3ccccc3)=NN2C(=O)c2ccccc2)c2ccccc21 (stereo unspecified) here?
Its EC50 is > 167 µM (inactive).

Which IC50 [22] does the source give for OCC1(Cc2ccccc2)CCN(Cc2cnc(-c3ccc(Cl)cc3)nc2)CC1 here?
Its IC50 is > 109 µM (inactive).

What about the IC50 [23] of the same compound?
The IC50 was > 83.3 µM (inactive).

What does the source list for Cc1nn(-c2ccccn2)c2c1C(=O)C(Br)CC2 (stereo unspecified)?
CC50 (Vero): > 40 µM (active); IC50 [24]: 65.6 µM (active)

With CCOC(=O)c1c(NC(=O)CSc2n[nH]c3c4ccccc4nc-3n2)sc2c1CCN(C)C2 as the compound, how does the EC50 [25] read?
Its EC50 is 0.161 µM (active).

What about the EC50 [26] of the same compound?
Its EC50 is > 60 µM (not active).

What about the IC50 [27] of the same compound?
Its IC50 is 10 µM (active).

Which results are given for O=[N+]([O-])c1ccc2c(c1NCCc1ccccc1)=NC1(CCCCC1)[N+]=2[O-]?
EC50 [28]: 393 µM (not active); IC50 [29]: > 50 µM (not active); IC50 (cells [30]): > 29.9 µM (inactive); EC50 [31]: 3.09 µM (active); IC50 [32]: 8.86 µM (active); EC50 (cells [33]): > 29.9 µM (inactive)
